Converted amounts (≈) assume the structure as drawn.
What was measured:
[1] = test system: C. psuedotropicalis 371E; test: in vitro antifungal MIC, two-fold serial dilution; assay type: cell-based, Candida pseudotropicalis; details: Kluyveromyces marxianus, 24 to 48 hours at 37° C
Description: (§1) The in vitro evaluation of the anti-fungal activity of compounds of the invention was performed on liquid or solid medium by the anti-fungal two-fold serial dilution technique of determining the minimum inhibitory concentration (MIC) of anti-fungal agent that inhibited development of growth after 24 to 48 hours of incubation at 37° C. In practice, a series of agar plates or broth microdilution panels containing two-fold dilutions of anti-fungal agent tested were inoculated with a standard culture of a clinically relevant pathogen, for example, candida albicans. The agar plates or broth microdulution panels were then examined for the presence or absence of growth of the fungus and the appropriate MIC values were noted. Compounds of formula (I) have been tested for anti fungal activity in a standard in vitro screen and the minimum inhibiting concentration (MIC; μg/ml) determined for each compound against a variety of clinically relevant pathogens.

[2] = test system: C. albicans 2402E; test: in vitro antifungal MIC, two-fold serial dilution; assay type: cell-based; details: Candida albicans, 24 to 48 hours at 37° C
Description: as §1

[3] = test system: C. glabrata 2376E; test: in vitro antifungal MIC, two-fold serial dilution; assay type: cell-based; details: Nakaseomyces glabratus, 24 to 48 hours at 37° C
Description: as §1

[4] = test system: C. glabrata 2375E; test: in vitro antifungal MIC, two-fold serial dilution; assay type: cell-based; details: Nakaseomyces glabratus, 24 to 48 hours at 37° C
Description: as §1

[5] = test system: C. neoformans 2867E; test: in vitro antifungal MIC, two-fold serial dilution; assay type: cell-based; details: Cryptococcus neoformans, 24 to 48 hours at 37° C
Description: as §1

[6] = test system: C. albicans 1208E; test: in vitro antifungal MIC, two-fold serial dilution; assay type: cell-based; details: Candida albicans, 24 to 48 hours at 37° C
Description: as §1

[7] = test system: C. tropicalis 2808E; test: in vitro antifungal MIC, two-fold serial dilution; assay type: cell-based; details: Candida tropicalis, 24 to 48 hours at 37° C
Description: as §1

[8] = test system: C. albicans 2005E; test: in vitro antifungal MIC, two-fold serial dilution; assay type: cell-based; details: Candida albicans, 24 to 48 hours at 37° C
Description: as §1

[9] = test system: fungal organisms; details: cited from earlier work; for antifungal activity (reported): reported in the literature; for antifungal activity and spectrum of action: when tested against a battery of fungal organisms
[10] = test system: C. albicans 4711E; test: in vivo protection of mice infected with C. albicans; parameters: species or system Candida albicans; male mice; details: 50 mg/kg sc
Source text: The in vivo evaluation of compounds of formula (I) can be carried out at a series of dose levels by administration (e.g. subcutaneously, orally, intraperitoneally or intravenously) to mice or rats inoculated with a strain of Candida albicans. Untreated animals die within 3 to 9 days and the dose level at which the test compound provides 50% protection against the lethal effect of the infection is noted.
(§2) The compounds of the invention are essentially non-toxic at therapeutically useful levels.

[11] = adverse effects in treated mice; assay type: in vivo, male mice; details: 50 mg/kg sc
Source text: as §2

[12] = test system: C. albicans 4711; test: in vitro antifungal MIC, two-fold serial dilution; assay type: cell-based; details: Candida albicans, 24 to 48 hours at 37° C
Description: as §1

Row | SMILES | MIC [1] | MIC [2] | MIC [3] | MIC [4] | MIC [5] | MIC [6] | MIC [7] | MIC [8] | antifungal activity (reported) [9] | antifungal activity and spectrum of action [9] | protection of male mice infected with C. albicans 4711E [10] | adverse effects in the treated mice [11] | MIC [12]
1 | CCCCCCCC(=O)OC1C(O)C(OCC23CC4C(C)CCC4C4(C=O)CC2C=C(C(C)C)C43C(=O)O)OC(C)C1OC [Example 24, [1R-(1α, 3aβ, 4β, 4aβ, 7β, 7aα, 8aβ,)] 8a-[(6-Deoxy-4-O-methyl-3'-O-octanoyl-β-D-altropyranosyloxy)methyl]-4-formyl-4,4a,5,6,7,7a,8,8a-octahydro-7-methyl-3-(1-methylethyl)-1,4-methano-s-indacene-3a(1H)-carboxylic acid] | 0.004 µg/mL (≈ 0.00646 µM) | 0.03 µg/mL (≈ 0.0485 µM) | 500 µg/mL (≈ 808 µM) | 500 µg/mL (≈ 808 µM) | 0.25 µg/mL (≈ 0.404 µM) | 0.6 µg/mL (≈ 0.97 µM) | 0.06 µg/mL (≈ 0.097 µM) | ≤ 0.001 µg/mL | – | – | – | – | –
2 | COC1C(C)OC(OCC23CC4C(C)CCC4C4(C=O)CC2C=C(C(C)C)C43C(=O)O)C(O)C1O (stereo not drawn) [sordarin] | – | – | – | – | – | – | – | – | fungistatic activity | only moderately active and have limited spectra of action | – | – | –
3 | CCCOC1CC(OCC23CC4C(C)CCC4C4(C=O)CC2C=C(C(C)C)C43C(=O)O)OC(C)C1OC [Example 7, [1R-(1α, 3aβ, 4β, 4aβ, 7β, 7aα, 8aβ)] 8a-[(2,6-Dideoxy-4-O-3-O-propyl-β-D-alopyranosyloxy)methyl]-4-formyl-4,4a,5,6,7,7a,8,8a-octahydro-7-methyl-3-(1-methylethyl)-1,4-methano-s-indacene-3a(1H)-carboxylic acid] | 0.004 µg/mL (≈ 0.00771 µM) | 0.008 µg/mL (≈ 0.0154 µM) | 8 µg/mL (≈ 15.4 µM) | 8 µg/mL (≈ 15.4 µM) | 125 µg/mL (≈ 241 µM) | 0.015 µg/mL (≈ 0.0289 µM) | 0.003 µg/mL (≈ 0.00578 µM) | ≤ 0.001 µg/mL | – | – | active in protecting male mice | no adverse effects were observed | 0.004 µg/mL (≈ 0.00771 µM)
4 | COC1C(N=[N+]=[N-])CC(OCC23CC4C(C)CCC4C4(C=O)CC2C=C(C(C)C)C43C(=O)O)OC1C [Example 15, [1R-(1α, 3aβ, 4β, 4aβ, 7β, 7aα, 8aβ)] 8a-[(3-Azido-4-O-methyl-2,3,6-trideoxy-β-D-allopyranosyloxy)methyl]-4-formyl-4,4a,5,6,7,7a,8,8a-octahydro-7-methyl-3-(1-methylethyl)-1,4-methano-s-indacene-3a(1)-carboxylic acid] | ≤ 0.001 µg/mL | ≤ 0.001 µg/mL | 1 µg/mL (≈ 1.99 µM) | 1 µg/mL (≈ 1.99 µM) | 31 µg/mL (≈ 61.8 µM) | ≤ 0.001 µg/mL | 0.004 µg/mL (≈ 0.00797 µM) | ≤ 0.001 µg/mL | – | – | – | – | ≤ 0.001 µg/mL
5 | COCOC1CC(OCC23CC4C(C)CCC4C4(C=O)CC2C=C(C(C)C)C43C(=O)O)OC(C)C1OC [Example 8, [1R-(1α, 3aβ, 4β, 4aβ, 7β, 7aα, 8aβ)] 8a-[(2,6-Dideoxy-4-O-methyl-3-O-methyloxymethyl-β-D-allopyranosyloxy)methyl]-4-formyl-4,4a,5,6,7,7a,8,8a-octahydro-7-methyl-3-(1-methylethyl)-1,4-methano-s-indacene-3a(1H)-carboxylic acid] | 0.12 µg/mL (≈ 0.23 µM) | 0.25 µg/mL (≈ 0.48 µM) | 16 µg/mL (≈ 30.7 µM) | 16 µg/mL (≈ 30.7 µM) | 31 µg/mL (≈ 59.5 µM) | 0.25 µg/mL (≈ 0.48 µM) | 2 µg/mL (≈ 3.84 µM) | 0.03 µg/mL (≈ 0.0576 µM) | – | – | – | – | 0.12 µg/mL (≈ 0.23 µM)
6 | CC=CC=CC(=O)OC1C(O)C(OCC23CC4C(C)CCC4C4(C=O)CC2C=C(C(C)C)C43C(=O)O)OC(C)C1OC (stereo not drawn) [zofimarin] | – | – | – | – | – | – | – | – | antifungal activity | only moderately active and have limited spectra of action | – | – | –
7 | COC1CCC(OCC23CC4C(C)CCC4C4(C=O)CC2C=C(C(C)C)C43C(=O)O)OC1C [Example 39, [1R-(1α, 3aβ, 4aβ, 7β, 7aα, 8aβ)] 8a-[(2,3,6-Trideoxy-4-O-methyl-β-D-allopyranosyloxy)methyl]-4-formyl-4,4a,5,6,7,7a,8,8a-octahydro-7-methyl-3-(1-methylethyl)-1,4-methano-s-indacene-3a(1H)-carboxylic acid] | 0.008 µg/mL (≈ 0.0174 µM) | 0.06 µg/mL (≈ 0.13 µM) | 8 µg/mL (≈ 17.4 µM) | 8 µg/mL (≈ 17.4 µM) | 62 µg/mL (≈ 135 µM) | 0.06 µg/mL (≈ 0.13 µM) | 0.25 µg/mL (≈ 0.543 µM) | 0.004 µg/mL (≈ 0.00868 µM) | – | – | – | – | –
8 | COC1C(C)OC(OCC23CC4C(C)CCC4C4(C=O)CC2C=C(C(C)C)C43C(=O)O)C(O)C1N=[N+]=[N-] [Example 10, [1R-(1α, 3aβ, 4β, 4aβ, 7β, 7aα, 8aβ)] 8a-[(3-Azido-3,6-dideoxy-4-O-methylβ-D-altropyranosyloxy)methyl]-4-formyl-4,4a,5,6,7,7a,8,8a-octahydro-7-methyl-3-(1-methylethyl)-1,4-methano-s-indacene-3a(1H)-carboxylic acid] | – | 1 µg/mL (≈ 1.93 µM) | 62 µg/mL (≈ 120 µM) | 62 µg/mL (≈ 120 µM) | 4 µg/mL (≈ 7.73 µM) | 1 µg/mL (≈ 1.93 µM) | – | 0.12 µg/mL (≈ 0.232 µM) | – | – | active in protecting male mice | no adverse effects were observed | 0.5 µg/mL (≈ 0.966 µM)
9 | COC1CC(OCC23CC4C(C)CCC4C4(C=O)CC2C=C(C(C)C)C43C(=O)O)OC(C)C1OC [Example 5, [1R-(1α, 3aβ, 4β, 4aβ, 7β, 7aα, 8aβ)] 8a-[(2,6-Dideoxy-3,4-O-dimethyl-β-D-allopyranosyloxy)methyl]-4-formyl-4,4a,5,6,7,7a,8,8a-octahydro-7-methyl-3-(1-methylethyl)-1,4-methano-s-indacene-3a(1H)-carboxylic acid] | ≤ 0.001 µg/mL | ≤ 0.001 µg/mL | 1 µg/mL (≈ 2.04 µM) | 1 µg/mL (≈ 2.04 µM) | 31 µg/mL (≈ 63.2 µM) | ≤ 0.001 µg/mL | 0.004 µg/mL (≈ 0.00815 µM) | ≤ 0.001 µg/mL | – | – | – | – | ≤ 0.001 µg/mL
10 | CC(=O)OC1C(C)OC(OCC23CC4C(C)CCC4C4(C=O)CC2C=C(C(C)C)C43C(=O)O)CC1SC(C)=O [Example 42, [1R-(1α, 3aβ, 4β, 4aβ, 7β, 7aα, 8aβ)] 8a-(((2,3,6-Trideoxy-4-O-acetyl-3-acetylthio-b-D-allopyranosyl)oxy)methyl)-4-formyl-4,4a,5,6,7,7a,8,8a-octahydro-7-methyl-3-(1-methylethyl)-1,4-methano-s-indacene-3a(1H)-carboxylic acid] | ≤ 0.001 µg/mL | 0.06 µg/mL (≈ 0.107 µM) | 31 µg/mL (≈ 55.1 µM) | 31 µg/mL (≈ 55.1 µM) | > 125 µg/mL | 0.06 µg/mL (≈ 0.107 µM) | 1 µg/mL (≈ 1.78 µM) | ≤ 0.001 µg/mL | – | – | – | – | 0.015 µg/mL (≈ 0.0267 µM)
11 | CCCCCCOC1C(O)C(OCC23CC4C(C)CCC4C4(C=O)CC2C=C(C(C)C)C43C(=O)O)OC(C)C1OC [Example 3, [1R-(1α, 3aβ, 4β4aβ, 7β, 7aα, 8aβ)] 8a-[(6-Deoxy-3-O-hexyl-4-O-methyl-β-D-altropyranosyloxy)methyl]-4-formyl-4,4a,5,6,7,7a,8,8a-octahydro-7-methyl-3-(1-methylethyl)-1,4-methano-s-indacene-3a(1H)-carboxylic acid] | 0.25 µg/mL (≈ 0.433 µM) | 2 µg/mL (≈ 3.47 µM) | > 125 µg/mL | > 125 µg/mL | 31 µg/mL (≈ 53.7 µM) | 4 µg/mL (≈ 6.94 µM) | 1 µg/mL (≈ 1.73 µM) | 0.25 µg/mL (≈ 0.433 µM) | – | – | – | – | –
12 | CCCOC1C(C)OC(OCC23CC4C(C)CCC4C4(C=O)CC2C=C(C(C)C)C43C(=O)O)CC1OC [Example 9, [1R-(1α, 3aβ, 4β, 4aβ, 7β, 7aα, 8aβ)] 8a-[(2,6-Dideoxy-3-O-methyl-4-O-propyl-β-D-allopyranosyloxy)methyl]-4-formyl-4,4a,5,6,7,7a,8,8a-octahydro-7-methyl-3-(1-methylethyl)-1,4-methano-s-indacene-3a(1H)-carboxylic acid] | 2 µg/mL (≈ 3.86 µM) | 8 µg/mL (≈ 15.4 µM) | > 125 µg/mL | > 125 µg/mL | 125 µg/mL (≈ 241 µM) | 8 µg/mL (≈ 15.4 µM) | 16 µg/mL (≈ 30.8 µM) | 2 µg/mL (≈ 3.86 µM) | – | – | – | – | 4 µg/mL (≈ 7.71 µM)
13 | COC1C(C)OC(OCC23CC4C(C)CCC4C4(C=O)CC2C=C(C(C)C)C43C(=O)O)C(O)C1SC [Example 11, [1R-(1α, 3aβ, 4β, 4aβ, 7β, 7aα, 8aβ)] 8a-[(3,6-Dideoxy-4-O-methyl-3-methylthio-β-D-altropyranosyloxy)methyl]-4-formyl-4,4a,5,6,7,7a,8,8a-octahydro-7-methyl-3-(1-methylethyl)-1,4-methano-s-indacene-3a(1H)-carboxylic acid] | 1 µg/mL (≈ 1.91 µM) | 1 µg/mL (≈ 1.91 µM) | 31 µg/mL (≈ 59.3 µM) | 31 µg/mL (≈ 59.3 µM) | 0.05 µg/mL (≈ 0.0957 µM) | 1 µg/mL (≈ 1.91 µM) | 2 µg/mL (≈ 3.83 µM) | 0.25 µg/mL (≈ 0.478 µM) | – | – | – | – | 1 µg/mL (≈ 1.91 µM)

From patent publication US6054478A, “Antifungal sordaridin derivatives” (Glaxo Wellcome S.A., priority 1994, dated 2000)
